Results reported in paper PMC3206020, “Analogous Mechanisms of Resistance to Benzothiazinones and Dinitrobenzamides in Mycobacterium smegmatis” (PLoS ONE, 2011).

Experiments:
DprE1 (MSMEG_6382) = target: T1, DprE1 (MSMEG_6382) (Mycolicibacterium smegmatis, UniProt A0R607); experiment: steady-state fluorescence titration (enzyme-bound FAD fluorescence); assay type: binding
T1 construct: recombinant DprE1 expressed as N-terminal six-histidine and thioredoxin fusion (pET-32b), digested with PreScission Protease

NfnB = target: T2, NfnB (Mycolicibacterium smegmatis, UniProt A0R6D0); experiment: LC/MS/MS detection of conversion of DNB1 to its hydroxylamine by purified NfnB; assay type: biochemical
T2 construct: purified NfnB protein

Question: O=C(NCCOCc1cccc(Cl)c1)c1cc([N+](=O)[O-])cc([N+](=O)[O-])c1 [DNB3, N-(2-(3-chlorobenzyloxy)ethyl)-3,5-dinitrobenzamide] was tested. Which Kd (DprE1 (MSMEG_6382)) did it give?
Answer: Its Kd is 1.8 ± 0.1 µM.

Question: With COc1ccc(OCCNC(=O)c2cc([N+](=O)[O-])cc([N+](=O)[O-])c2)cc1 [DNB1, N-(2-(4-methoxyphenoxy)ethyl)-3,5-dinitrobenzamide] as the compound, how does the “LC/MS/MS detection of conversion of DNB1 to its hydroxylamine by purified NfnB” value (NfnB) read?
Answer: The value was “NfnB was able to convert DNB1 into the corresponding hydroxyl amine-derivative in the presence of NADPH”.

Question: What about the Kd (DprE1 (MSMEG_6382)) of the same compound?
Answer: The Kd was 7.3 ± 0.8 µM.
